The text below walks through data of US20140187559A1, “INHIBITORS OF THE FIBROBLAST GROWTH FACTOR RECEPTOR” (BLUEPRINT MEDICINES CORPORATION, priority 2012, published 2014).

Structures are written as SMILES.

In one experiment the target is T1, wild type FGFR-1 (Homo sapiens, UniProt P11362).
T1 construct: purchased Carna Biosciences, Inc
Nature of the experiment: FGFR-1 wild type assay at Km (Caliper mobility shift). Type of experiment: biochemical. The conditions noted are these: 400 uM ATP, 25 C, 90 minutes; read-out: FGFR1 IC50. As to the method:
(§1) In order to assess the activity of chemical compounds against the relevant kinase of interest, the Caliper LifeSciences electrophoretic mobility shift technology platform is utilized. Fluorescently labeled substrate peptide is incubated in the presence dosed levels of compounds, a set concentration of kinase and of ATP, so that a reflective proportion of the peptide is phosphorylated. At the end of the reaction, the mix of phosphorylated (product) and non-phosphorylated (substrate) peptides are passed through the microfluidic system of the Caliper LabChip® EZ Reader II, under an applied potential difference. The presence of the phosphate group on the product peptide provides a difference in mass and charge between the product peptide and the substrate peptide, resulting in a separation of the substrate and product pools in the sample. As the pools pass the LEDS within the instrument, these pools are detected and resolved as separate peaks. The ratio between these peaks therefore reflects the activity of the chemical matter at that concentration in that well, under those conditions.
The reaction was stopped by the addition of 70 ul of Stop buffer (100 mM HEPES pH 7.5, 0.015% Brij 35, 35 mM EDTA and 0.2% of Coating Reagent 3 (Caliper Lifesciences)). The plate was then read on a Caliper EZReader 2 (protocol settings: —1.9 psi, upstream voltage—700, downstream voltage—3000, post sample sip 35 s).

The next experiment deals with T2, wild type FGFR-4 (Homo sapiens, UniProt P22455).
T2 construct: purchased Carna Biosciences, Inc
T2 sequence (P22455 22-802): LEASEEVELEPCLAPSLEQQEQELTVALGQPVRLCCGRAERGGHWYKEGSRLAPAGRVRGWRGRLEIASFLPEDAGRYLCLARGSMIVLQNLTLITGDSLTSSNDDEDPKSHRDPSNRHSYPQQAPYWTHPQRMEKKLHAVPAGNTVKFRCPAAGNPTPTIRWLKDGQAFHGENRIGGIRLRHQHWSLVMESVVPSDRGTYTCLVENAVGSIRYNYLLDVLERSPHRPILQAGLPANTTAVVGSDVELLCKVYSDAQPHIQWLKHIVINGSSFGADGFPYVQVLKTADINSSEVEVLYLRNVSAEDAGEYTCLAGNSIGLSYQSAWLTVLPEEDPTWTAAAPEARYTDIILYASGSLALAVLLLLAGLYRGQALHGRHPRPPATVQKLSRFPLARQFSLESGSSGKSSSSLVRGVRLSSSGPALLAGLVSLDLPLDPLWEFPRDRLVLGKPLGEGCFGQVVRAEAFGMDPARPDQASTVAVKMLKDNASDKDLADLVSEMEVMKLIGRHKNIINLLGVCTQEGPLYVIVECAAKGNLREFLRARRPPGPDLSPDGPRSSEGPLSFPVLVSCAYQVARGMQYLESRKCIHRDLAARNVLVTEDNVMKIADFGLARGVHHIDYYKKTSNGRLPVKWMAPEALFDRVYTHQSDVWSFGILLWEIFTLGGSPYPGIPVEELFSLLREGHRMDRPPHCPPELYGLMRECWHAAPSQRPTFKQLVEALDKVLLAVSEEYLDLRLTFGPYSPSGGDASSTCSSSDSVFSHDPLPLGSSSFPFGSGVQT
Description: FGFR-4 wild type assay at Km (Caliper mobility shift). Type of experiment: biochemical. The following applies: for Ratio FGFR1/FGFR4: [IC50 for FGFR1]/[IC50 for FGFR4]; for IC50: 400 uM ATP, 25 C, 90 minutes, read-out: FGFR4 IC50. As for the experimental part:
as §1
The reaction was stopped by the addition of 70 ul of Stop buffer (100 mM HEPES pH 7.5, 0.015% Brij 35, 35 mM EDTA and 0.2% of Coating Reagent 3 (Caliper Lifesciences)). The plate was then read on a Caliper LabChip® EZ Reader II (protocol settings: —1.9 psi, upstream voltage—700, downstream voltage—3000, post sample sip 35 s).

T1 sequence (P11362 22-822): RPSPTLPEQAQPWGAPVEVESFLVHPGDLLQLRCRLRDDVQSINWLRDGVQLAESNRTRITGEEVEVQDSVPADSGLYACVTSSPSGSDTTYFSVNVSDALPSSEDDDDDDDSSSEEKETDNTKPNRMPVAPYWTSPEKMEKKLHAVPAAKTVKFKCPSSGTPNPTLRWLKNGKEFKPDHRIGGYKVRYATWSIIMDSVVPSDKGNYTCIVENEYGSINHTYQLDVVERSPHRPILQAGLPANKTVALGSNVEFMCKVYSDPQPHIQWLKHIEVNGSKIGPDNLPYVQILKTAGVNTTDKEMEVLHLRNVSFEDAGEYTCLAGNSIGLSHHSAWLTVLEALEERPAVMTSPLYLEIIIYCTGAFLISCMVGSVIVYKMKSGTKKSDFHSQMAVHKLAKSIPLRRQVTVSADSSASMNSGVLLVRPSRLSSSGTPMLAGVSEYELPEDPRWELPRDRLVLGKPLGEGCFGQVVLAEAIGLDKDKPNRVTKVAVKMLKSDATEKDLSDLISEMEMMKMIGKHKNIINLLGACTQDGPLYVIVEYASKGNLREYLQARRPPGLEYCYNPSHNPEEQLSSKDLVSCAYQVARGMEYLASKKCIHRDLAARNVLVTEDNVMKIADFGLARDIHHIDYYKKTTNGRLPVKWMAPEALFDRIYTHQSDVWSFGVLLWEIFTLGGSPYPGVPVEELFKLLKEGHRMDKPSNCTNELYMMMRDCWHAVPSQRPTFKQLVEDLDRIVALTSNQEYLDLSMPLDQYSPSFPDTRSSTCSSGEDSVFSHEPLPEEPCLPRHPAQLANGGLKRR

Regarding `C=CC(=O)Nc1cccc(C)c1Nc1ncc2cc(-c3c(Cl)c(OC)cc(OC)c3Cl)c(=O)n(C)c2n1` [COMPOUND 43, N-(2-((6-(2,6-dichloro-3,5-dimethoxyphenyl)-8-methyl-7-oxo-7,8-dihydropyrido[2,3-d]pyrimidin-2-yl)amino)-3-methylphenyl)acrylamide], on wild type FGFR-1, the IC50 fell in the range of 100 to 1000 nM.

For the molecule `C=CC(=O)Nc1ccccc1Nc1cc2c(cn1)cc(-c1c(Cl)c(OC)cc(OC)c1Cl)c(=O)n2C` [COMPOUND 31], the “Ratio FGFR1/FGFR4” value at wild type FGFR-4 was “B (the ratio is ≧200 and <500)”. Further, the 50% inhibitory concentration (IC50) at wild type FGFR-1 was in the range of 10 to 100 nM. In the case of `C=CC(=O)Nc1ccc(F)c(C)c1Nc1ncc2cc(-c3c(Cl)c(OC)cc(OC)c3Cl)ccc2n1` [COMPOUND 33], on wild type FGFR-4, the IC50 lay within 10 to 100 nM. For the molecule `C=CC(=O)Nc1cccc(C)c1Nc1ncc(C#Cc2cc(OC)cc(OC)c2)cn1` [COMPOUND 6, N-(2-((5-((3,5-dimethoxyphenyl)ethynyl)pyrimidin-2-yl)amino)-3-methylphenyl)acrylamide], the 50% inhibitory concentration (IC50) on wild type FGFR-4 is 100 to 1000 nM. Turning to `C=C(C)C(=O)Nc1cccc(C)c1Nc1ncc2cc(-c3c(Cl)c(OC)cc(OC)c3Cl)ccc2n1` [COMPOUND 29], the concentration for half-maximal inhibition (IC50) on wild type FGFR-1 fell in the range of 100 to 1000 nM. On the same count and under the same terms, to `C=CC(=O)Nc1cccc(C)c1Nc1ncc2cc(-c3c(Cl)c(OC)cc(OC)c3Cl)cc(F)c2n1` [COMPOUND 34, N-(2-((6-(2,6-dichloro-3,5-dimethoxyphenyl)-8-fluoroquinazolin-2-yl)amino)-3-methylphenyl)acrylamide] belongs 100 to 1000 nM.

In the case of `C#CC(=O)NCc1cccn2c(-c3cc(NC(=O)NCC(F)(F)F)cc(OC(C)C)c3)cnc12` [COMPOUND 20, N-((3-(3-isopropoxy-5-(3-(2,2,2-trifluoroethyl)ureido)phenyl)imidazo[1,2-a]pyridin-8-yl)methyl)propiolamide], on wild type FGFR-4, the IC50 lay in the range of 10 to 100 nM.

Turning to `C=CC(=O)Nc1cccc(C)c1Nc1ncc2cc(-c3c(Cl)c(OC)cc(OC)c3Cl)cc(OC)c2n1` [COMPOUND 41], the IC50 at wild type FGFR-1 is 100 to 1000 nM.

Turning to `C=CC(=O)Nc1ccccc1Nc1ncc2cc(-c3c(Cl)c(OC)cc(OC)c3Cl)c(=O)n(C)c2c1C` [COMPOUND 40, N-(2-((3-(2,6-dichloro-3,5-dimethoxyphenyl)-1,8-dimethyl-2-oxo-1,2-dihydro-1,6-naphthyridin-7-yl)amino)phenyl)acrylamide], the IC50 at wild type FGFR-4 is 100 to 1000 nM. Regarding `C=CC(=O)Nc1cccc(C)c1Nc1ncc2cc(-c3c(Cl)c(OC)cc(OC)c3Cl)c(OC)cc2n1` [COMPOUND 42, N-(2-((6-(2,6-dichloro-3,5-dimethoxyphenyl)-7-methoxyquinazolin-2-yl)amino)-3-methylphenyl)acrylamide], the half-maximal inhibitory concentration (IC50) on wild type FGFR-1 lay within 10 to 100 nM. `C=CC(=O)Nc1cccc(C)c1Oc1ncc2cc(-c3c(Cl)c(OC)cc(OC)c3Cl)ccc2n1` [COMPOUND 25A]: at wild type FGFR-4, the 50% inhibitory concentration (IC50) lay within 100 to 1000 nM; the “Ratio FGFR1/FGFR4” value was “D (the ratio is ≧50 and <100)”.

As to `C=CC(=O)N(CCCCN(CC)CC)c1ncc2cc(-c3c(Cl)c(OC)cc(OC)c3Cl)c(NC(=O)NC(C)(C)C)nc2n1` [COMPOUND 55, N-(7-(3-(tert-butyl)ureido)-6-(2,6-dichloro-3,5-dimethoxyphenyl)pyrido[2,3-d]pyrimidin-2-yl)-N-(4-(diethylamino)butyl)acrylamide], the concentration for half-maximal inhibition (IC50) on wild type FGFR-1 fell in the range of 10 to 100 nM. On to `C=CC(=O)Nc1cccc(C)c1Nc1cc2c(cn1)cc(-c1c(Cl)c(OC)cc(OC)c1Cl)c(=O)n2C` [COMPOUND 39], for which the “Ratio FGFR1/FGFR4” value on wild type FGFR-4 was “E (the ratio is ≧10 and <50)”. In the case of `C=CC(=O)Nc1cccc(OC)c1Nc1ncc2cc(-c3c(Cl)c(OC)cc(OC)c3Cl)ccc2n1` [COMPOUND 30, N-(2-((6-(2,6-dichloro-3,5-dimethoxyphenyl)quinazolin-2-yl)amino)-3-methoxyphenyl)acrylamide], on wild type FGFR-1, the IC50 was 100 to 1000 nM. On to `C=CC(=O)Nc1cccc(C)c1Nc1ncc2nc(-c3c(Cl)c(OC)cc(OC)c3Cl)c(=O)n(C)c2n1` [COMPOUND 45, N-(2-((6-(2,6-dichloro-3,5-dimethoxyphenyl)-8-methyl-7-oxo-7,8-dihydropteridin-2-yl)amino)-3-methylphenyl)acrylamide], for which the “Ratio FGFR1/FGFR4” value at wild type FGFR-4 was “E (the ratio is ≧10 and <50)”.

For the molecule `C=CC(=O)Nc1ccccc1Nc1ncc(Cl)c(N2CCN(C(=O)Nc3cccc(C(F)(F)F)c3)CC2)n1` [COMPOUND 50, 4-(2-((2-acrylamidophenyl)amino)-5-chloropyrimidin-4-yl)-N-(3-(trifluoromethyl)phenyl)piperazine-1-carboxamide], the IC50 at wild type FGFR-4 was 100 to 1000 nM. Regarding `C=CC(=O)Nc1cccc(C)c1Nc1ncc2cc(-c3cc(OC)cc(OC)c3)cnc2n1` [COMPOUND 10, N-(2-((6-(3,5-dimethoxyphenyl)pyrido[2,3-d]pyrimidin-2-yl)amino)-3-methylphenyl)acrylamide], the “Ratio FGFR1/FGFR4” value on wild type FGFR-4 was “E (the ratio is ≧10 and <50)”. As to `C=CC(=O)Nc1cccc(C)c1Nc1ncc2cc(-c3c(Cl)ccc(OC)c3F)ccc2n1` [COMPOUND 17A], at wild type FGFR-4, the half-maximal inhibitory concentration (IC50) was 10 to 100 nM; the “Ratio FGFR1/FGFR4” value was “E (the ratio is ≧10 and <50)”. Take `C=CC(=O)N(C)c1ncc2c(n1)N(C)C(=O)N(c1cc(OC)cc(OC)c1)C2` [COMPOUND 5]: the IC50 at wild type FGFR-4 fell in the range of 10 to 100 nM. The same measure, in the same setting: to `C=CC(=O)Nc1cc(C(=O)NC2CCN(C)CC2)ccc1Nc1ncc(C)c(N2CCN(C(=O)Nc3ccc(C#N)cc3)CC2)n1` [COMPOUND 54, 4-(2-((2-acrylamido-4-((1-methylpiperidin-4-yl)carbamoyl)phenyl)amino)-5-methylpyrimidin-4-yl)-N-(4-cyanophenyl)piperazine-1-carboxamide] belongs 10 to 100 nM. Same read-out and setting: to `C=CC(=O)Nc1cc(Cl)cc(C)c1Nc1ncc2cc(-c3c(Cl)c(OC)cc(OC)c3Cl)ccc2n1` [COMPOUND 49] belongs 10 to 100 nM. With `C=CC(=O)Nc1ccccc1-c1ccn2c(-c3cccc(NC(=O)NCC(F)(F)F)c3)cnc2c1` [COMPOUND 21, N-(2-(3-(3-(3-(2,2,2-trifluoroethyl)ureido)phenyl)imidazo[1,2-a]pyridin-7-yl)phenyl)acrylamide], at wild type FGFR-4, the IC50 is 100 to 1000 nM; the “Ratio FGFR1/FGFR4” value was “B (the ratio is ≧200 and <500)”.

`C=CC(=O)Nc1cc(F)cc(C)c1Nc1ncc2cc(-c3c(Cl)c(OC)cc(OC)c3Cl)ccc2n1` [COMPOUND 32]: on wild type FGFR-4, the “Ratio FGFR1/FGFR4” value was “C (the ratio is ≧100 and <200)”. Regarding `C=CC(=O)Nc1cccc(C)c1Nc1ncc2cc(-c3c(Cl)c(OC)cc(OC)c3Cl)cnc2n1` [COMPOUND 26, N-(2-((6-(2,6-dichloro-3,5-dimethoxyphenyl)pyrido[2,3-d]pyrimidin-2-yl)amino)-3-methylphenyl)acrylamide], the IC50 at wild type FGFR-1 was 100 to 1000 nM. As for `C=CC(=O)Nc1cc(F)cc(F)c1Nc1ncc2cc(-c3c(Cl)c(OC)cc(OC)c3Cl)ccc2n1` [COMPOUND 36], on wild type FGFR-4, the IC50 was 100 to 1000 nM; the “Ratio FGFR1/FGFR4” value is “B (the ratio is ≧200 and <500)”. In the case of `C=CC(=O)N(C)c1ncc2cc(-c3c(Cl)cccc3Cl)ccc2n1` [COMPOUND 2], at wild type FGFR-4, the IC50 was in the range of 100 to 1000 nM; the “Ratio FGFR1/FGFR4” value is “D (the ratio is ≧50 and <100)”.

As to `C=CC(=O)Nc1cccc(C)c1Nc1ncc(C#Cc2c(Cl)c(OC)cc(OC)c2Cl)cn1` [COMPOUND 24, N-(2-((5-((2,6-dichloro-3,5-dimethoxyphenyl)ethynyl)pyrimidin-2-yl)amino)-3-methylphenyl)acrylamide], the half-inhibitory concentration (IC50) on wild type FGFR-4 lay in the range of 10 to 100 nM. On to `C=CC(=O)Nc1cccc(C)c1Nc1ncc2cc(-c3c(Cl)cccc3Cl)ccc2n1` [COMPOUND 13], for which, at wild type FGFR-4, the IC50 is 10 to 100 nM; the “Ratio FGFR1/FGFR4” value was “D (the ratio is ≧50 and <100)”. Consider `C=CC(=O)Nc1ccccc1Nc1nccc(N2CCCC(NS(=O)(=O)CCC)C2)n1` (centres unmarked) [COMPOUND 11, N-(2-((4-(3-(propylsulfonamido)piperidin-1-yl)pyrimidin-2-yl)amino)phenyl)acrylamide], for which the IC50 on wild type FGFR-4 is 100 to 1000 nM.

Turning to `C=CC(=O)N(C)c1ncc2cc(-c3cc(OC)cc(OC)c3)ccc2n1` [COMPOUND 1], the “Ratio FGFR1/FGFR4” value at wild type FGFR-4 is “C (the ratio is ≧100 and <200)”. On to `C=CC(=O)Nc1cccc(Cl)c1Nc1ncc2cc(-c3cc(C(N)=O)ccc3C)ccc2n1` [COMPOUND 17], for which, on wild type FGFR-4, the 50% inhibitory concentration (IC50) was in the range of 10 to 100 nM; the “Ratio FGFR1/FGFR4” value is “B (the ratio is ≧200 and <500)”.

Take `C=CC(=O)Nc1cccc(C)c1Nc1ncc2cc(-c3cc(C(N)=O)ccc3F)ccc2n1` [COMPOUND 9]: on wild type FGFR-4, the IC50 lay in the range of 100 to 1000 nM; the “Ratio FGFR1/FGFR4” value was “D (the ratio is ≧50 and <100)”. `C=CC(=O)Nc1cccc(C)c1Nc1ncc2cc(-c3c(Cl)cccc3Cl)c(=O)n(C)c2n1` [COMPOUND 22]: at wild type FGFR-4, the IC50 was 10 to 100 nM; the “Ratio FGFR1/FGFR4” value is “B (the ratio is ≧200 and <500)”. With `C=CC(=O)Nc1ccccc1Nc1cc2c(cn1)cc(-c1cc(OC)cc(OC)c1)c(=O)n2C` [COMPOUND 15], at wild type FGFR-4, the 50% inhibitory concentration (IC50) was 10 to 100 nM; the “Ratio FGFR1/FGFR4” value was “B (the ratio is ≧200 and <500)”. As to `C=CC(=O)Nc1ccccc1Nc1cc2nc(NC(=O)NC(C)(C)C)c(-c3cc(OC)cc(OC)c3)cc2cn1` [COMPOUND 44], at wild type FGFR-4, the 50% inhibitory concentration (IC50) was in the range of 100 to 1000 nM; the “Ratio FGFR1/FGFR4” value is “E (the ratio is ≧10 and <50)”.
